Laboratory results as given in ChEMBL document CHEMBL1201861, “Genomics of Drug Sensitity in Cancer screening data, Wellcome Trust Sanger Institute”.
pIC50: −log10 of the molar value.

Tests used:
Test in all cases: cells
CaR-1 = type: functional, cell-based, Homo sapiens; conditions: Homo sapiens, CaR-1;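 also: growth inhibition of human CaR-1 cancer cells, read out with a cell viability assay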
Description: SANGER: Inhibition of human CaR-1 cell growth in a cell viability assay.

D-336MG = type: functional, cell-based, Homo sapiens; conditions: Homo sapiens, D-336MG
Description: SANGER: Inhibition of human D-336MG cell growth in a cell viability assay.

D-542MG = type: functional, cell-based, Homo sapiens; conditions: Homo sapiens, D-542MG
Description: SANGER: Inhibition of human D-542MG cell growth in a cell viability assay.

G-401 = type: functional, cell-based, Homo sapiens; conditions: Homo sapiens, G-401
Description: SANGER: Inhibition of human G-401 cell growth in a cell viability assay.

GMS-10 = type: functional, cell-based, Homo sapiens; conditions: Homo sapiens, GMS-10;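 also: growth inhibition of GMS-10 cells, read out as cell viability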
Description: SANGER: Inhibition of human GMS-10 cell growth in a cell viability assay.

HCC1937 = type: functional, cell-based, Homo sapiens; conditions: Homo sapiens, HCC1937;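 also: growth inhibition measured with a cell viability read-out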
Description: SANGER: Inhibition of human HCC1937 cell growth in a cell viability assay.

HT1197 = type: functional, cell-based, Homo sapiens, HT-1197; conditions: Homo sapiens, HT1197
Description: SANGER: Inhibition of human HT-1197 cell growth in a cell viability assay.

HTC-C3 = type: functional, cell-based, Homo sapiens; conditions: Homo sapiens, HTC-C3;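 also: inhibition of cell growth, read out with a cell viability assay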
Description: SANGER: Inhibition of human HTC-C3 cell growth in a cell viability assay.

JIYOYE = type: functional, cell-based, Homo sapiens; conditions: Homo sapiens, JIYOYE
Description: SANGER: Inhibition of human JiyoyeP-2003 cell growth in a cell viability assay.

KMS-12-PE = type: functional, cell-based, Homo sapiens; conditions: Homo sapiens, KMS-12-PE;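 also: growth inhibition of human KMS-12-PE cells, measured with a cell viability assay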
Description: SANGER: Inhibition of human KMS-12-PE cell growth in a cell viability assay.

KU-19-19 = type: functional, cell-based, Homo sapiens; conditions: Homo sapiens, KU-19-19
Description: SANGER: Inhibition of human KU-19-19 cell growth in a cell viability assay.

KYSE-410 = type: functional, cell-based, Homo sapiens; conditions: Homo sapiens, KYSE-410;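 also: growth inhibition of KYSE-410 cells, measured through a cell viability readout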
Description: SANGER: Inhibition of human KYSE-410 cell growth in a cell viability assay.

MC-IXC = type: functional, cell-based, Homo sapiens; conditions: Homo sapiens, MC-IXC;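 also: growth inhibition of MC-IXC cells, read out with a cell viability assay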
Description: SANGER: Inhibition of human MC-IXC cell growth in a cell viability assay.

MEL-JUSO = type: functional, cell-based, Homo sapiens; conditions: Homo sapiens, MEL-JUSO;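 also: growth inhibition of human MEL-JUSO cells, read out with a cell viability assay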
Description: SANGER: Inhibition of human MEL-JUSO cell growth in a cell viability assay.

MKN-1 = type: functional, cell-based, Homo sapiens; conditions: Homo sapiens, MKN-1;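 also: growth inhibition of human MKN1 cells, read out by a cell viability measurement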
Description: SANGER: Inhibition of human MKN1 cell growth in a cell viability assay.

MeWo = type: functional, cell-based, Homo sapiens; conditions: Homo sapiens, MeWo;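 also: growth inhibition of MeWo cells, determined by a cell viability readout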
Description: SANGER: Inhibition of human Mewo cell growth in a cell viability assay.

NCI-H1522 = type: functional, cell-based, Homo sapiens; conditions: Homo sapiens, NCI-H1522;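 also: growth inhibition of NCI-H1522 cells, read out with a cell viability assay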
Description: SANGER: Inhibition of human NCI-H1522 cell growth in a cell viability assay.

NCI-H1792 = type: functional, cell-based, Homo sapiens; conditions: Homo sapiens, NCI-H1792;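 also: growth inhibition of human NCI-H1792 cells, read out as cell viability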
Description: SANGER: Inhibition of human NCI-H1792 cell growth in a cell viability assay.

NCI-H2009 = type: functional, cell-based, Homo sapiens; conditions: Homo sapiens, NCI-H2009;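 also: cell viability assay measuring inhibition of NCI-H2009 cell growth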
Description: SANGER: Inhibition of human NCI-H2009 cell growth in a cell viability assay.

NCI-H322M = type: functional, cell-based, Homo sapiens; conditions: Homo sapiens, NCI-H322M;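 also: cell viability assay measuring inhibition of growth of human NCI-H322M cells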
Description: SANGER: Inhibition of human NCI-H322M cell growth in a cell viability assay.

NCI-H441 = type: functional, cell-based, Homo sapiens; conditions: Homo sapiens, NCI-H441;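 also: growth inhibition of NCI-H441 cells, read out with a cell viability assay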
Description: SANGER: Inhibition of human NCI-H441 cell growth in a cell viability assay.

NCI-H716 = type: functional, cell-based, Homo sapiens; conditions: Homo sapiens, NCI-H716;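 also: growth inhibition of human NCI-H716 cells, measured by a cell viability assay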
Description: SANGER: Inhibition of human NCI-H716 cell growth in a cell viability assay.

OAW-28 = type: functional, cell-based, Homo sapiens; conditions: Homo sapiens, OAW-28;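 also: growth inhibition of OAW-28 cells, read out with a cell viability assay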
Description: SANGER: Inhibition of human OAW-28 cell growth in a cell viability assay.

PANC-08-13 = type: functional, cell-based, Homo sapiens; conditions: Homo sapiens, PANC-08-13;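 also: cell growth inhibition, measured with a cell viability assay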
Description: SANGER: Inhibition of human PANC-08-13 cell growth in a cell viability assay.

RL = type: functional, cell-based, Homo sapiens; conditions: Homo sapiens, RL
Description: SANGER: Inhibition of human RL cell growth in a cell viability assay.

RPMI-2650 = type: functional, cell-based, Homo sapiens; conditions: Homo sapiens, RPMI-2650
Description: SANGER: Inhibition of human RPMI-2650 cell growth in a cell viability assay.

SBC-5 = type: functional, cell-based, Homo sapiens; conditions: Homo sapiens, SBC-5;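 also: cell viability assay read-out, IC50 is the concentration that inhibits growth of the cells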
Description: SANGER: Inhibition of human SBC-5 cell growth in a cell viability assay.

SK-LU-1 = type: functional, cell-based, Homo sapiens; conditions: Homo sapiens, SK-LU-1;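 also: cell viability assay measuring growth inhibition of human SK-LU-1 cells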
Description: SANGER: Inhibition of human SK-LU-1 cell growth in a cell viability assay.

SK-MEL-30 = type: functional, cell-based, Homo sapiens; conditions: Homo sapiens, SK-MEL-30;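 also: growth inhibition of SK-MEL-30 cells, determined with a cell viability assay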
Description: SANGER: Inhibition of human SK-MEL-30 cell growth in a cell viability assay.

SW48 = type: functional, cell-based, Homo sapiens; conditions: Homo sapiens, SW48;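 also: growth inhibition of SW48 cells, read out with a cell viability assay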
Description: SANGER: Inhibition of human SW48 cell growth in a cell viability assay.

SW756 = type: functional, cell-based, Homo sapiens; conditions: Homo sapiens, SW756;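 also: growth inhibition of human SW756 cells, read out with a cell viability assay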
Description: SANGER: Inhibition of human SW756 cell growth in a cell viability assay.

T84 = type: functional, cell-based, Homo sapiens; conditions: Homo sapiens, T84;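 also: growth inhibition measured with a cell viability readout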
Description: SANGER: Inhibition of human T84 cell growth in a cell viability assay.

T98G = type: functional, cell-based, Homo sapiens; conditions: Homo sapiens, T98G;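 also: growth inhibition of T98G cells, read out by a cell viability assay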
Description: SANGER: Inhibition of human T98G cell growth in a cell viability assay.

23132-87 = type: functional, cell-based, Homo sapiens; conditions: Homo sapiens
Description: SANGER: Inhibition of human 23132-87 cell growth in a cell viability assay.

647-V = type: functional, cell-based, Homo sapiens; conditions: Homo sapiens, 647-V;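 also: growth inhibition of 647-V cells, read out with a cell viability assay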
Description: SANGER: Inhibition of human 647-V cell growth in a cell viability assay.

A2780 = type: functional, cell-based, Homo sapiens; conditions: Homo sapiens, A2780;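 also: growth inhibition of A2780 cells, read out with a cell viability assay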
Description: SANGER: Inhibition of human A2780 cell growth in a cell viability assay.

ASPC1 = type: functional, cell-based, Homo sapiens; conditions: Homo sapiens, ASPC1;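 also: growth inhibition of AsPC-1 cells, read out with a cell viability assay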
Description: SANGER: Inhibition of human AsPC-1 cell growth in a cell viability assay.

BPH-1 = type: functional, cell-based, Homo sapiens; conditions: Homo sapiens, BPH-1;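 also: cell viability assay measuring growth inhibition of human BPH-1 cells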
Description: SANGER: Inhibition of human BPH-1 cell growth in a cell viability assay.

CA46 = type: functional, cell-based, Homo sapiens; conditions: Homo sapiens, CA46;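 also: growth inhibition of human CA46 cells, read out by a cell viability assay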
Description: SANGER: Inhibition of human CA46 cell growth in a cell viability assay.

CAL-120 = type: functional, cell-based, Homo sapiens; conditions: Homo sapiens, CAL-120;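 also: cell growth inhibition, read out as cell viability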
Description: SANGER: Inhibition of human CAL-120 cell growth in a cell viability assay.

UO-31 = type: functional, cell-based, Homo sapiens; conditions: Homo sapiens, UO-31;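 also: cell viability assay measuring inhibition of cell growth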
Description: SANGER: Inhibition of human U031 cell growth in a cell viability assay.

UACC-62 = type: functional, cell-based, Homo sapiens; conditions: Homo sapiens, UACC-62;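 also: growth inhibition of human UACC-62 cells, read out by a cell viability assay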
Description: SANGER: Inhibition of human UACC-62 cell growth in a cell viability assay.

UMUC3 = type: functional, cell-based, Homo sapiens; conditions: Homo sapiens, UMUC3;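 also: growth inhibition of human UM-UC-3 cells, read out with a cell viability assay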
Description: SANGER: Inhibition of human UM-UC-3 cell growth in a cell viability assay.

VM-CUB-1 = type: functional, cell-based, Homo sapiens; conditions: Homo sapiens, VM-CUB-1;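 also: cell viability assay measuring growth inhibition of the human VM-CUB-1 cell line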
Description: SANGER: Inhibition of human VM-CUB-1 cell growth in a cell viability assay.

CHP-212 = type: functional, cell-based, Homo sapiens; conditions: Homo sapiens, CHP-212
Description: SANGER: Inhibition of human CHP-212 cell growth in a cell viability assay.

MOLT-13 = type: functional, cell-based, Homo sapiens; conditions: Homo sapiens, MOLT-13;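 also: IC50 for suppression of MOLT-13 cell growth, read out with a cell viability assay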
Description: SANGER: Inhibition of human MOLT-13 cell growth in a cell viability assay.

Q: With `N#Cc1c(O)c2c(-c3ccc(-c4ccccc4O)cc3)csc2[nH]c1=O` as the compound, how does the pIC50 (CaR-1) read?
A: < 5.99

Q: And the pIC50 (D-336MG)?
A: < 5.99

Q: What about the pIC50 (D-542MG) of the same compound?
A: < 5.99

Q: What about the pIC50 (G-401) of the same compound?
A: < 5.99

Q: What about the pIC50 (GMS-10) of the same compound?
A: < 5.99

Q: What about the pIC50 (HCC1937) of the same compound?
A: < 5.99

Q: What about the pIC50 (HT1197) of the same compound?
A: < 5.99

Q: What about the pIC50 (HTC-C3) of the same compound?
A: < 5.99

Q: What about the pIC50 (JIYOYE) of the same compound?
A: 7.08

Q: What about the pIC50 (KMS-12-PE) of the same compound?
A: 6.38

Q: What about the pIC50 (KU-19-19) of the same compound?
A: < 5.99

Q: What about the pIC50 (KYSE-410) of the same compound?
A: < 5.99

Q: And the pIC50 (MC-IXC)?
A: < 5.99

Q: What about the pIC50 (MEL-JUSO) of the same compound?
A: < 5.99

Q: And the pIC50 (MKN-1)?
A: < 5.99

Q: And the pIC50 (MeWo)?
A: < 5.99

Q: What about the pIC50 (NCI-H1522) of the same compound?
A: 6.71

Q: And the pIC50 (NCI-H1792)?
A: < 5.99

Q: And the pIC50 (NCI-H2009)?
A: < 5.99

Q: What about the pIC50 (NCI-H322M) of the same compound?
A: < 5.99

Q: What about the pIC50 (NCI-H441) of the same compound?
A: < 5.99

Q: What about the pIC50 (NCI-H716) of the same compound?
A: < 5.99

Q: And the pIC50 (OAW-28)?
A: < 5.99

Q: And the pIC50 (PANC-08-13)?
A: < 5.99

Q: And the pIC50 (RL)?
A: < 5.99

Q: What about the pIC50 (RPMI-2650) of the same compound?
A: < 5.99

Q: And the pIC50 (SBC-5)?
A: < 5.99

Q: What about the pIC50 (SK-LU-1) of the same compound?
A: < 5.99

Q: And the pIC50 (SK-MEL-30)?
A: < 5.99

Q: And the pIC50 (SW48)?
A: < 5.99

Q: And the pIC50 (SW756)?
A: < 5.99

Q: And the pIC50 (T84)?
A: < 5.99

Q: What about the pIC50 (T98G) of the same compound?
A: < 5.99

Q: What about the pIC50 (23132-87) of the same compound?
A: < 5.99

Q: And the pIC50 (647-V)?
A: < 5.99

Q: And the pIC50 (A2780)?
A: < 5.99

Q: And the pIC50 (ASPC1)?
A: < 5.99

Q: And the pIC50 (BPH-1)?
A: < 5.99

Q: And the pIC50 (CA46)?
A: 6.71

Q: What about the pIC50 (CAL-120) of the same compound?
A: < 5.99

Q: What about the pIC50 (UO-31) of the same compound?
A: < 5.99

Q: And the pIC50 (UACC-62)?
A: < 5.99

Q: What about the pIC50 (UMUC3) of the same compound?
A: < 5.99

Q: And the pIC50 (VM-CUB-1)?
A: < 5.99

Q: What about the pIC50 (CHP-212) of the same compound?
A: < 5.99

Q: With `COc1cc(-c2nn([C@H]3CC[C@H](N4CCN(C(C)=O)CC4)CC3)c3ncnc(N)c23)ccc1NC(=O)c1cc2ccccc2n1C` as the compound, how does the pIC50 (D-336MG) read?
A: 6.67

Q: What about the pIC50 (JIYOYE) of the same compound?
A: 5.38

Q: What about the pIC50 (KMS-12-PE) of the same compound?
A: < 5.29

Q: And the pIC50 (MOLT-13)?
A: < 5.29

Q: What about the pIC50 (NCI-H1522) of the same compound?
A: < 5.29

Q: What about the pIC50 (NCI-H322M) of the same compound?
A: < 5.29

Q: What about the pIC50 (NCI-H716) of the same compound?
A: < 5.29

Q: What about the pIC50 (RL) of the same compound?
A: < 5.29

Q: And the pIC50 (CA46)?
A: < 5.29

Q: `CC(=O)O[C@H]1C(=O)[C@@]2(C)[C@H]([C@H](OC(=O)c3ccccc3)[C@]3(O)C[C@H](OC(=O)[C@H](O)[C@@H](NC(=O)c4ccccc4)c4ccccc4)C(C)=C1C3(C)C)[C@]1(OC(C)=O)CO[C@@H]1C[C@@H]2O` [PACLITAXEL] was tested. Which pIC50 (D-336MG) did it give?
A: < 6.99

Q: What about the pIC50 (JIYOYE) of the same compound?
A: 7.66

Q: What about the pIC50 (KMS-12-PE) of the same compound?
A: < 6.99

Q: And the pIC50 (MOLT-13)?
A: 7.79

Q: What about the pIC50 (NCI-H1522) of the same compound?
A: < 6.99

Q: What about the pIC50 (NCI-H322M) of the same compound?
A: < 6.99

Q: And the pIC50 (NCI-H716)?
A: < 6.99

Q: And the pIC50 (RL)?
A: < 6.99

Q: And the pIC50 (CA46)?
A: < 6.99
